Source: patent publication US20240327364A1, “THERAPEUTIC TARGETING OF GPR68 TO INDUCE FERROPTOSIS” (University Of Maryland, Baltimore, priority 2023, published 2024)
pIC50: −log10 of the molar value.

How the values were obtained:
Motilin = biological target: T1, Motilin (Homo sapiens, UniProt O43193); test: GPCR Profiler; format: cell-based
T1 construct: host or cells: Chem-1 cells expressing Gα15

STK39 = biological target: T2, STK39 (Homo sapiens, UniProt Q9UEW8); test: KinomeScan; format: binding; details: read-out: % Control
T2 construct: purchased DiscoveRx (Fremont, CA)

PRKCQ = biological target: T3, PRKCQ (Homo sapiens, UniProt Q04759); test: KinomeScan; format: binding; details: read-out: % Control
T3 construct: purchased DiscoveRx (Fremont, CA)

GLP-2 = biological target: T4, GLP-2 (Homo sapiens, UniProt O95838); test: GPCR Profiler; format: cell-based
T4 construct: host or cells: Chem-1 cells expressing Gα15

CSNK1E = CSNK1E (Homo sapiens, UniProt P49674); test: KinomeScan; format: binding; details: read-out: % Control
MEK4 = biological target: T5, MEK4 (Homo sapiens, UniProt P45985); test: KinomeScan; format: binding; details: read-out: % Control
T5 construct: purchased DiscoveRx (Fremont, CA)

MET = biological target: T6, MET (Homo sapiens, UniProt P08581); test: KinomeScan; format: binding; details: read-out: % Control
T6 construct: purchased DiscoveRx (Fremont, CA)

ACVR2A = biological target: T7, ACVR2A (Homo sapiens, UniProt P27037); test: KinomeScan; format: binding; details: read-out: % Control
T7 construct: purchased DiscoveRx

[1] = biological target: T8, RPS6KA4(Kin.Dom.1-N-terminal) (Homo sapiens, UniProt O75676); test: KinomeScan; format: binding; details: read-out: % Control
T8 construct: RPS6KA4(Kin.Dom.1-N-terminal); purchased DiscoveRx (Fremont, CA)

NMU2 = biological target: T9, NMU2 (Homo sapiens, UniProt Q9GZQ4); test: GPCR Profiler; format: cell-based
T9 construct: host or cells: Chem-1 cells expressing Gα15

MRGX2 = biological target: T10, MRGX2 (Homo sapiens, UniProt Q96LB1); test: GPCR Profiler; format: cell-based
T10 construct: host or cells: Chem-1 cells expressing Gα15

OX2 = biological target: T11, OX2 (Homo sapiens, UniProt O43614); test: GPCR Profiler; format: cell-based
T11 construct: host or cells: Chem-1 cells expressing Gα15

Lpa1 = Lpa1 (Homo sapiens, UniProt Q92633); test: Lpa1 activity of OGM analogs (Table 5); format: cell-based
Method: GPCR profiling assays were performed by Millipore (St. Louis, MO) using in cells expressing Gα15, a promiscuous G protein that enhances GPCR coupling to downstream Ca2+ signaling pathways. KinomeScan was conducted by DiscoveRx (Fremont, CA). Since GPCRs represent >30% of targets for FDA-approved small molecules and are known to modulate cell migration, activity against 158 GPCRs was assessed based on their chemical structures. GPCRs (158) were tested for agonist and antagonist activity at 10 μM. […] Chemical segregation analysis of zebrafish phenotype was conducted to further identify the inhibitory activity responsible for the zebrafish phenotype. […] The identities of the R groups in Formula A are shown below in Table 5.

TIE1 = biological target: T12, TIE1 (Homo sapiens, UniProt P35590); test: KinomeScan; format: binding; details: read-out: % Control
T12 construct: purchased DiscoveRx (Fremont, CA)

PDGFRB = biological target: T13, PDGFRB (Homo sapiens, UniProt P09619); test: KinomeScan; format: binding; details: read-out: % Control
T13 construct: purchased DiscoveRx (Fremont, CA)

S1P3 = biological target: T14, S1P3 (Homo sapiens, UniProt Q99500); test: GPCR Profiler; format: cell-based
T14 construct: host or cells: Chem-1 cells with Gα15

RET(M918T) = biological target: T15, RET(M918T) (Homo sapiens, UniProt P07949, M918T); test: KinomeScan; format: binding; details: read-out: % Control
T15 construct: purchased DiscoveRx (Fremont, CA)

TSSK1B = biological target: T16, TSSK1B (Homo sapiens, UniProt Q9BXA7); test: KinomeScan; format: binding; details: read-out: % Control
T16 construct: purchased DiscoveRx (Fremont, CA)

ITK = biological target: T17, ITK (Homo sapiens, UniProt Q08881); test: KinomeScan; format: binding; details: read-out: % Control
T17 construct: purchased DiscoveRx (Fremont, CA)

ETA = biological target: T18, ETA (Homo sapiens, UniProt P25101); test: GPCR Profiler; format: cell-based
T18 construct: host or cells: Chem-1 cells expressing Gα15

RIOK2 = biological target: T19, RIOK2 (Homo sapiens, UniProt Q9BVS4); test: KinomeScan; format: binding; details: read-out: % Control
T19 construct: purchased DiscoveRx (Fremont, CA)

Thrombin Activated PARs = test: GPCR Profiler; format: cell-based
DAPK2 = biological target: T20, DAPK2 (Homo sapiens, UniProt Q9UIK4); test: KinomeScan; format: binding; details: read-out: % Control
T20 construct: purchased DiscoveRx (Fremont, CA), KinomeScan service

SBK1 = biological target: T21, SBK1 (Homo sapiens, UniProt Q52WX2); test: KinomeScan; format: binding; details: read-out: % Control
T21 construct: purchased DiscoveRx (Fremont, CA)

CRF2 = biological target: T22, CRF2 (Homo sapiens, UniProt Q13324); test: GPCR Profiler; format: cell-based
T22 construct: host or cells: Chem-1 cells with Gα15

WM115 = test: Scratch assay; format: cell-based, human; details: 20 hours, OGM2 5 uM
Method: (§1) Since there are numerous parallels are found between neural crest cells and cancer during migration, we examined whether OGM could inhibit the migration of cells in human melanoma cell lines (Oppitz et al., 2007; Schriek et al., 2005, Sinnberg et al., 2018). […] A2058. MeWo and WM115 cells were grown to confluence and a stripe of cells were denuded with a p200 pipette tip “scratch” and rinsed with PBS. Cells were treated with OGM or DMSO and incubated in low serum media. Imaging was done at 30 minutes after “scratch” and then 20 hours afterwards. Areas were then measured and normalized to the initial area.

MeWo = test: Scratch assay; format: cell-based, human; details: 20 hours, OGM2 5 uM
Method: as §1

T10 sequence (Q96LB1 whole entry, species assumed): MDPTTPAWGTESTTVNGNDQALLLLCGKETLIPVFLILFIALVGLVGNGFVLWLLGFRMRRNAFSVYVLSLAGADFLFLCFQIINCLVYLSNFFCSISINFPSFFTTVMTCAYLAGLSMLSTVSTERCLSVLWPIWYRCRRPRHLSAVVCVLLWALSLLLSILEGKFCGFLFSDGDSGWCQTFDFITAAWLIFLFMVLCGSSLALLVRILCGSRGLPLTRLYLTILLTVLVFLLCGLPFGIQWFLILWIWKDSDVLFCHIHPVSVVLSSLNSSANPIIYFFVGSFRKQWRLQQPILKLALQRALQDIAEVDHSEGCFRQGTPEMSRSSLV
T4 sequence (O95838 whole entry): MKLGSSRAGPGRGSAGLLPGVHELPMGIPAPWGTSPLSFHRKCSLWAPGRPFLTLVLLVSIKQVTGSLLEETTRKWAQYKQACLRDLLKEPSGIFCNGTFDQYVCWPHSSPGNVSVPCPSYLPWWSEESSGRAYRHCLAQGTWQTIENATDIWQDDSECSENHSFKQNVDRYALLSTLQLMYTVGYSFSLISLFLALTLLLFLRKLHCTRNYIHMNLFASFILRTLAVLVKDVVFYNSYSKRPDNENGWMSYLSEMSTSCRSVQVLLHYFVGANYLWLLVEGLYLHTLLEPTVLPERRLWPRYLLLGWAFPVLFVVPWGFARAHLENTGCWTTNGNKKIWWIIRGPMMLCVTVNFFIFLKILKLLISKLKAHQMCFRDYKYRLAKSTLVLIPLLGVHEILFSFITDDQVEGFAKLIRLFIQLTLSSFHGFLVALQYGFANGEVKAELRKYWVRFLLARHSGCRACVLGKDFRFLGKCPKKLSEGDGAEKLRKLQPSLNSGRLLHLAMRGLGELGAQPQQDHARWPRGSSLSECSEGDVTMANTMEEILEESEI
T1 sequence (O43193 whole entry): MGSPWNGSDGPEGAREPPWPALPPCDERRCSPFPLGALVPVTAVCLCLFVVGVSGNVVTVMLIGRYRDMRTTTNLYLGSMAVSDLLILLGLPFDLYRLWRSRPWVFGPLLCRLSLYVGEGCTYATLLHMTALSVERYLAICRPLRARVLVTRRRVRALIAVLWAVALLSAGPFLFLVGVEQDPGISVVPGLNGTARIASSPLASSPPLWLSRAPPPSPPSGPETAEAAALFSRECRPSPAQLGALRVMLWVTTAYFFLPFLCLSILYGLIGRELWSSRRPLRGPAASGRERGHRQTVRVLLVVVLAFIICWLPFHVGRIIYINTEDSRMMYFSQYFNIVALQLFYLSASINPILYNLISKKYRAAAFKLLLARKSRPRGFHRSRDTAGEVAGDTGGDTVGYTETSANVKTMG
T14 sequence (Q99500 whole entry, species assumed): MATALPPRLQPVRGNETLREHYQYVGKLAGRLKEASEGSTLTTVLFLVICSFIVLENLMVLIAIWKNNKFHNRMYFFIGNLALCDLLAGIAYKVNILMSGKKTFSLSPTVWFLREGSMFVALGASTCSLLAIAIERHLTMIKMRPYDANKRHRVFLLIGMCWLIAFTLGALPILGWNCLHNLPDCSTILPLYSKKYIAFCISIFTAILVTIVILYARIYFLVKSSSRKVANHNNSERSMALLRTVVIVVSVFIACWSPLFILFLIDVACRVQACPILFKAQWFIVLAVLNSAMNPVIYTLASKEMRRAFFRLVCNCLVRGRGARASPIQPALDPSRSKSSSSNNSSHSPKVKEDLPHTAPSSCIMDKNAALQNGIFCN
T11 sequence (O43614 whole entry): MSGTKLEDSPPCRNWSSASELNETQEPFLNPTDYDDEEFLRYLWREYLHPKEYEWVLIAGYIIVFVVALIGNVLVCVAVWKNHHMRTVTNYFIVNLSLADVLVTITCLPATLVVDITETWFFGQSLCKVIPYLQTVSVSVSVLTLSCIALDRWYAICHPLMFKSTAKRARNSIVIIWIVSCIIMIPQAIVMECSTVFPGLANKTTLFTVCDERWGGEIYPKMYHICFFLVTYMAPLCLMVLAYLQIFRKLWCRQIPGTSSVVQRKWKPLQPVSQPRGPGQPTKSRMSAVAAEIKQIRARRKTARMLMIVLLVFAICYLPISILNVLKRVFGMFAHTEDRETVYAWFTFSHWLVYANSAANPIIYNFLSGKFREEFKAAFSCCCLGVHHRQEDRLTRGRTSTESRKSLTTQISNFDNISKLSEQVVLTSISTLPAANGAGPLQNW
T22 sequence (Q13324 whole entry): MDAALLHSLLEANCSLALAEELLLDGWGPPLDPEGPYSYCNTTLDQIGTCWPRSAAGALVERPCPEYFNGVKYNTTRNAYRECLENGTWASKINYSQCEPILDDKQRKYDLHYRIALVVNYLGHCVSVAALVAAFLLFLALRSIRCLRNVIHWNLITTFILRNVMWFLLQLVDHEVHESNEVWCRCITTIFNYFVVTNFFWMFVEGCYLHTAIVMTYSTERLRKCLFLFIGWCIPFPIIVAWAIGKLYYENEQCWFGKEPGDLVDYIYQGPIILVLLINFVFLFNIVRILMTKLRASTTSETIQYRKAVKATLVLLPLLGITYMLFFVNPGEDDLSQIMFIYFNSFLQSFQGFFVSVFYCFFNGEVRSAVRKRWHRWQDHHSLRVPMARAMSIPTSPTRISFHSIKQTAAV
T18 sequence (P25101 21-427): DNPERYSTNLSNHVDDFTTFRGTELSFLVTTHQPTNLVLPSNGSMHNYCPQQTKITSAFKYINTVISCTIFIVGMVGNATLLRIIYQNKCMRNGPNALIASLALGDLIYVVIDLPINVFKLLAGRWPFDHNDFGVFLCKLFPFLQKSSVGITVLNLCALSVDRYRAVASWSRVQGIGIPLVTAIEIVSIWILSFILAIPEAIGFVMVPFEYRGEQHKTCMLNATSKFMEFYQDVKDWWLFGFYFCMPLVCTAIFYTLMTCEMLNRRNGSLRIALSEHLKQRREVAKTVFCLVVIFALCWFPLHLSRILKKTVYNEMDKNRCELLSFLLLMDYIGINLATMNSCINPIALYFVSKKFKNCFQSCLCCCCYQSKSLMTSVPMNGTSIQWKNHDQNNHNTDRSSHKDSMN
T9 sequence (Q9GZQ4 whole entry, species assumed): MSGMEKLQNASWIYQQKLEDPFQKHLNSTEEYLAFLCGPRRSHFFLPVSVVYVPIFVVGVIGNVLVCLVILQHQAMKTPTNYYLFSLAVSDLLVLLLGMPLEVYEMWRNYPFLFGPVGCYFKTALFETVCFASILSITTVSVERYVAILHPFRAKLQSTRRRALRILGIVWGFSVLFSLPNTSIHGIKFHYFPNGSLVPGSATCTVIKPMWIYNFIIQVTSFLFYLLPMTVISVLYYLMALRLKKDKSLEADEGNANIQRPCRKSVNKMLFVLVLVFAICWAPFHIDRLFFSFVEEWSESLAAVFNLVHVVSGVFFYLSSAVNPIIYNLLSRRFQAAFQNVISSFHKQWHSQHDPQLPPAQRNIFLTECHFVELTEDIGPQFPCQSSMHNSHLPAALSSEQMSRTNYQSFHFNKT
T3 sequence (Q04759 whole entry): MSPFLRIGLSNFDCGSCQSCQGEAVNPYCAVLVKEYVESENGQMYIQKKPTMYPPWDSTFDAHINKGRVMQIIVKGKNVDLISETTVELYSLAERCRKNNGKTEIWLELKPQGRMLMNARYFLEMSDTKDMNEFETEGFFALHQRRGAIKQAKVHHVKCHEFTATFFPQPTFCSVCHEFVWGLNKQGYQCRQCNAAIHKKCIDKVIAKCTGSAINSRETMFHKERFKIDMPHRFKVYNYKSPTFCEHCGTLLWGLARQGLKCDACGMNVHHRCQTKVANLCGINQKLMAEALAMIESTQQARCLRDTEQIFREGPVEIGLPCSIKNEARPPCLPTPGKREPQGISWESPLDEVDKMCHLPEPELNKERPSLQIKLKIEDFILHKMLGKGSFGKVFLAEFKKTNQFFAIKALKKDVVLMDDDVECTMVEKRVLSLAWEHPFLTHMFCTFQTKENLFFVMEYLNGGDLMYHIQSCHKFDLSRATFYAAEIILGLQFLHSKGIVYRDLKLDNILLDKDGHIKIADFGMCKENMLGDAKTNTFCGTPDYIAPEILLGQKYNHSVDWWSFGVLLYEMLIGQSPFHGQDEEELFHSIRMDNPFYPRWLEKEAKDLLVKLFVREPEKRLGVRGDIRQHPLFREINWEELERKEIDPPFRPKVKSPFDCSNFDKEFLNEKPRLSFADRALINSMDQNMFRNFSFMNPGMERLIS
T17 sequence (Q08881 whole entry): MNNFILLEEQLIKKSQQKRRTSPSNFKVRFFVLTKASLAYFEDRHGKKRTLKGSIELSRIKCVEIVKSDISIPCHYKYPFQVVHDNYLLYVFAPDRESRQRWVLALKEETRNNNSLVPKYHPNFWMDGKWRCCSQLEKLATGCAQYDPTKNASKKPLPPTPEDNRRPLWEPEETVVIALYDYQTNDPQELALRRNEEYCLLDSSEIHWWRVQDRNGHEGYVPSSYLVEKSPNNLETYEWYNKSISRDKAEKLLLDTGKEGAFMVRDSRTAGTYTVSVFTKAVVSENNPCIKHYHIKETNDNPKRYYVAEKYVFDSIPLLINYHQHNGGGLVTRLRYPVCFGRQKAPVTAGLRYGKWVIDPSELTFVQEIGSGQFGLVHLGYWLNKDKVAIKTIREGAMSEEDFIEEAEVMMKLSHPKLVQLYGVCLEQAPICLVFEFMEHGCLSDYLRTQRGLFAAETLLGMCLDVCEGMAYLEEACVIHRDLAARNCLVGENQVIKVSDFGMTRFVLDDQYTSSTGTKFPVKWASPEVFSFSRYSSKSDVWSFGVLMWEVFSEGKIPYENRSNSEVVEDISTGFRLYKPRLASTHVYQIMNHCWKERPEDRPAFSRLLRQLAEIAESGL
T8 sequence (O75676 33-301 limits assumed): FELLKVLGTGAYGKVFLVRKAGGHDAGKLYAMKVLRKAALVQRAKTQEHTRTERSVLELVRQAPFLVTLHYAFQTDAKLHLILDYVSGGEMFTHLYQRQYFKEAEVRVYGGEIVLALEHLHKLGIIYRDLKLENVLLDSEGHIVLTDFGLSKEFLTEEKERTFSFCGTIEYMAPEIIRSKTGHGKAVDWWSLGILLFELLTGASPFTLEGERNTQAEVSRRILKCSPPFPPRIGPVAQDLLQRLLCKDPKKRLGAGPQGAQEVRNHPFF

Compound: CCc1ccc2c(c1)C1(NN=C(c3cccc4ccccc34)S1)C(=O)N2 (stereo not drawn) [OGM1, 5-ethyl-5′-naphthalen-1-ylspiro[1H-indole-3,2′-3H-1,3,4-thiadiazole]-2-one]
- Antagonism (Motilin; 10 uM): −0.7
- Agonism (Motilin; 12.5 uM): 1
- remaining binding at 10 µM (STK39): 59%
- remaining binding at 10 µM (PRKCQ): 99%
- Antagonism (GLP-2; 10 uM): 2.1
- Agonism (GLP-2; 12.5 uM): −0.2
- remaining binding at 10 µM (CSNK1E): 91%
- remaining binding at 10 µM (MEK4): 100%
- remaining binding at 10 µM (MET): 100%
- remaining binding at 10 µM (ACVR2A): 100%
- remaining binding at 10 µM [1]: 92%
- Antagonism (NMU2; 10 uM): −4.2
- Agonism (NMU2; 12.5 uM): 0
- Antagonism (MRGX2; 10 uM): 5.1
- Agonism (MRGX2; 12.5 uM): −0.1
- Antagonism (OX2; 10 uM): −3.4
- Agonism (OX2; 12.5 uM): 0.2
- pIC50 (Lpa1): 5.06
- remaining binding at 10 µM (TIE1): 94%
- remaining binding at 10 µM (PDGFRB): 72%
- Antagonism (S1P3; 10 uM): −3.7
- Agonism (S1P3; 12.5 uM): 0.2
- remaining binding at 10 µM (RET(M918T)): 92%
- remaining binding at 10 µM (TSSK1B): 79%
- remaining binding at 10 µM (ITK): 100%
- Antagonism (ETA; 10 uM): 4.7
- Agonism (ETA; 12.5 uM): 0.1
- remaining binding at 10 µM (RIOK2): 100%
- Antagonism (Thrombin Activated PARs; 10 uM): 3.2
- Agonism (Thrombin Activated PARs; 12.5 uM): 1
- remaining binding at 10 µM (DAPK2): 89%
- remaining binding at 10 µM (SBK1): 100%
- Antagonism (CRF2; 10 uM): −13.7
- Agonism (CRF2; 12.5 uM): 0.6

Compound: CCc1ccc2c(c1)C1(NN=C(c3ccccc3)S1)C(=O)N2 (stereo not drawn) [OGM2]
- migration (WM115): inhibited migration
- migration (MeWo): inhibited migration
